Experimental data as given in patent US20240116985A1, “STAPLED PEPTIDES AND METHODS THEREOF” (priority 2020, published 2024).
Read-outs that look alike come from different tables or passages of the source.

Columns and labels:
[1] = tested on: TCF/LEF luciferase Reporter in DLD1 cells; assay: TCF reporter assay (DLD1 TCF/LEF luciferase reporter, Bright-Glo); format: cell-based
Text: Those skilled in the art will appreciate that other suitable reagents may be utilized and various parameters may be adjusted.
DLD1 reporter cell line was generated by using TCF/LEF luciferase Reporter Lentivirus (BPS Bioscience Catalog #79787). Parental DLD1 cells (ATCC@ CCL-221) were transfected with the lentivirus and followed by 3-day puromycin selection. Single clone was selected for Reporter assay.
On Day 1, cultured cells in flasks that are no more than about 60-70% confluent were washed with PBS and typsinized in 3 mL/T75 until cells were free floating. Spin down cells for 5 minutes at 1100RPM. While cells spin, determine the number of plates (3 compounds per plate) needed. After spinning, aspirate the supernatant gently and add 10 mL media (RPMI+4% FBS), and re-suspend and mix the cells gently. Count the cells twice in the cell counter Countess and take average of both the counts, and determine how many cells are needed. After plating cells at 5000 cells/well, seal with aerseal film. 90 uL cells/well. Incubate at 37° C. overnight, tap gently to mix and don't stack plates.
On Day 2, compounds were added. Stock solution was 10 mM. Make the DMSO containing media by adding 36 uL DMSO to 10 mL of media. Make the dilution wells by transferring 100 uL DMSO+Media into rows B-F of a protein LoBind 96-well plate. Row G is empty. Add any extra DMSO+media to row H. Transfer 4 uL of stock solution to Row A. One compound per column. Add 196 uL media to Row A, no DMSO in the media. Concentration of Row A was 200 uM. Mix well and do a 6 pt, 1:2 serial dilution, mix ×10 per transfer and change tips before each transfer. Removed excess volume from final well (row F) and discard. Transfer 10 uL of the compound containing media to cells with a multichannel according to plate maps. Add 60 uL DMSO containing media to the DMSO wells. The edge wells were typically not used in the assay and could be ignored if needed or replaced with PBS, but there typically were liquids in the wells. Cover plates with breathable plate sealer and incubate overnight.
A 96-well plate may be utilized to prepare dilution series for up to 12 compounds, each with several concentrations (e.g., 200, 100, 50, 25, 12.5, 6.25 and 0 uM; can be utilized as 100× depending on final test concentrations).
0 uM is the DMSO control for the whole plate. Edge well filled with 90 uL cells+10 uL DMSO containing media.
On Day 3, luciferase levels were assessed using Bright-Glo (Promega). Equilibrate Bright-Glo to room temperature before addition. 7 mL of mixed Bright-Gbo per plate. Unused Bright-Glo could be store at −80° C. Reconstituted reagent can be stored for up to 1 month at −80° C., or after one freeze-thaw. When ready to read, remove plates from incubator and let sit at room temperature for 15 minutes. Typically stagger taking out plates if reading multiple plates before adding the Bright-Glo. Add 90 uL/well Bright-Glo and shake gently for 3 minutes. Read luminescence on GloMax immediately using ‘BrightGlo’ programs.
Cellular activity was assessed using CTG. Equilibrate CTG reagents to room temperature. Equilibrate plates to room temp, e.g. 15 min. Use same time length for all plates. Add CTG reagent, 25 uL if using undiluted, or 90 uL if diluted 1 to 4. Shake for 2 min to induce cell lysis. Allow plate to incubate at RT for 10 min to stabilize lumine sent signal. Read luminesence using program ‘CellTiter-Glo’. Use Prism to find the Absolute IC50 (AbsIC50=X[50]) of each compound.

[2] = molecular target: T1, beta-catenin/TCF4 engagement (Homo sapiens, UniProt P35222); assay: Nano-BRET target engagement assay (B-cat-Halo & TCF4-Luc in HEK293 cells); format: cell-based; settings: absolute IC50; read-out: NanoBRET Abs IC50
T1 construct: expressed in transfected cells; host or cells: HEK293
T1 sequence (P35222 1-781): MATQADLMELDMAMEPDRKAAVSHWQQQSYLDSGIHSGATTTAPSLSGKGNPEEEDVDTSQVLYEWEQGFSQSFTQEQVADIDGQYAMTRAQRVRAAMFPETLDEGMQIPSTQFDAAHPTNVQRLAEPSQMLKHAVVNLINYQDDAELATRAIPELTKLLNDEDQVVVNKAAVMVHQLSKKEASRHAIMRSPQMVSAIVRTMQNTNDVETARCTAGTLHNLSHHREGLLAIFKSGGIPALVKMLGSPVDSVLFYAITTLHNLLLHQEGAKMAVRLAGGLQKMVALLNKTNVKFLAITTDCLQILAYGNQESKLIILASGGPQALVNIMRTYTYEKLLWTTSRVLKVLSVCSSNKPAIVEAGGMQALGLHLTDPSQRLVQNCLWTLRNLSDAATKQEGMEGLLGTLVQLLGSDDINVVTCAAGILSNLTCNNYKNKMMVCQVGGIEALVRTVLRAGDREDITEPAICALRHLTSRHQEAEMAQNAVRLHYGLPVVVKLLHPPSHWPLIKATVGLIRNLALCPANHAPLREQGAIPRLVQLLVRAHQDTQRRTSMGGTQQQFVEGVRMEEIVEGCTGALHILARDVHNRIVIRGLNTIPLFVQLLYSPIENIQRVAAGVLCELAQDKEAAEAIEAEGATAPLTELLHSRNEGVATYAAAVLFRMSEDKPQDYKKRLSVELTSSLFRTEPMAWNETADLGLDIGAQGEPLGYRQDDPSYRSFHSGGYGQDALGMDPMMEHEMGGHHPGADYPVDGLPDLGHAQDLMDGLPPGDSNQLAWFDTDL

[3] = molecular target: T2, full-length beta-Catenin (Uniprot ID P35222) (Homo sapiens, UniProt P35222); assay: Fluorescence polarization IC50 (beta-catenin / 5FAM-TCF4 10-53 competition); format: binding; settings: read-out: beta-Catenin FP IC50
T2 construct: 10 nM full-length beta-Catenin (Uniprot ID P35222)
T2 sequence (P35222 1-781): T1 sequence (P35222 1-781)

[4] = read-out: DLD1 4% Abs IC50, DLD1 reporter assay, 4%, absolute IC50
[5] = absolute IC50, read-out: DLD1 reporter assay Abs IC50
[6] = read-out: DLD1 4% Abs IC50, DLD1 reporter, 4%

| IC50 [2] | IC50 ([3]; fluorescence polarization) | IC50 [1, 5] | IC50 [3] | IC50 ([1]; read-out: DLD1 4% Abs IC50, DLD1 reporter, 4%, absolute IC50) | IC50 [1, 6] | SMILES | IC50 [1, 4] |
| --- | --- | --- | --- | --- | --- | --- | --- |
| 5.6 µM | 0.013 µM |  |  |  |  | CC(=O)N1CCC[C@]12CC=CCCCC1(CCCC=CCCCOC(=O)N3CC[C@@](C(=O)N[C@@H](Cc4ccsc4)C(=O)N[C@@H](Cc4csc5ccccc45)C(=O)N[C@@H](CO)C(N)=O)(C3)NC(=O)[C@H](CC(C)C)NC(=O)[C@H](Cc3ccccc3)NC(=O)[C@H](C)NC(=O)[C@H](C)NC(=O)[C@H](Cc3ccccc3C(=O)O)NC(=O)[C@H](CC(=O)O)NC1=O)NC(=O)[C@H](CC(C)(C)C)NC(=O)[C@H](CC(=O)O)NC2=O (single isomer, unassigned) [I-1667, Ac-PL3-Asp-Npg-B5-Asp-2COOHF-Ala-Ala-Phe-Leu-PyrS2-3Thi-BztA-Ser-NH2] | 1.3 µM |
| 23.6 µM |  | > 20 µM | 0.005 µM |  |  | CC(=O)N1CCC[C@]12CC=CCCCC1(CCCC=CCCCOC(=O)N3CC[C@@](C(=O)N[C@@H](Cc4ccsc4)C(=O)N[C@@H](Cc4csc5ccccc45)C(=O)N[C@@H](CCC(N)=O)C(=O)O)(C3)NC(=O)[C@H](CC(N)=O)NC(=O)[C@H](Cc3ccccc3)NC(=O)[C@H](C)NC(=O)[C@H](C)NC(=O)[C@H](CC(=O)O)NC(=O)[C@H](CC(=O)O)NC1=O)NC(=O)[C@H](CC(C)(C)C)NC(=O)[C@H](CC(=O)O)NC2=O (stereo partly drawn) [I-1025, Ac-PL3-Asp-Npg-B5-Asp-Asp-Ala-Ala-Phe-Asn-PyrS2-3Thi-BztA-Gln-OH] |  |
| 16.7 µM |  | > 20 µM | 0.005 µM |  |  | CC(=O)N1CCC[C@]12CC=CCCCC1(CCCC=CCCCOC(=O)N3CC[C@@](C(=O)N[C@@H](Cc4ccsc4)C(=O)N[C@@H](Cc4csc5ccccc45)C(=O)N[C@@H](CCC(N)=O)C(=O)O)(C3)NC(=O)[C@H](CC(N)=O)NC(=O)[C@H](Cc3ccccc3)NC(=O)[C@H](C)NC(=O)[C@H](C)NC(=O)[C@H](CN(CC(=O)O)CC(F)(F)F)NC(=O)[C@H](CC(=O)O)NC1=O)NC(=O)[C@H](CC(C)(C)C)NC(=O)[C@H](CC(=O)O)NC2=O (stereo partly drawn) [I-1026, Ac-PL3-Asp-Npg-B5-Asp-TfeGA-Ala-Ala-Phe-Asn-PyrS2-3Thi-BztA-Gln-OH] |  |
| 11.5 µM | 0.033 µM | 4.9 µM |  |  |  | CCNC(=O)[C@H](CCC(N)=O)NC(=O)[C@H](Cc1csc2ccccc12)NC(=O)[C@H](Cc1ccccc1Cl)NC(=O)[C@]12CCN(C1)C(=O)OCCCC=CCCCC1(CCCC=CC[C@]3(CCCN3C(C)=O)C(=O)N[C@@H](CC(=O)O)C(=O)N[C@@H](CC(C)(C)C)C(=O)N1)C(=O)N[C@@H](CC(=O)O)C(=O)N[C@@H](CN(CC(=O)O)CC(F)(F)F)C(=O)N[C@@H](C)C(=O)N[C@@H](C)C(=O)N[C@@H](Cc1ccccc1)C(=O)N[C@@H]([C@@H](C)O)C(=O)N2 (stereo partly drawn) [I-1240, Ac-PL3-Asp-Npg-B5-Asp-TfeGA-Ala-Ala-Phe-Thr-PyrS2-2C1F-BztA-Gln-NHEt] |  |
| 15.7 µM | 0.019 µM | 3.8 µM |  |  |  | CC(=O)N1CCC[C@]12CC=CCCCC1(CCCC=CCCCOC(=O)N3CC[C@@](C(=O)N[C@@H](Cc4ccccc4Cl)C(=O)N[C@@H](Cc4csc5ccccc45)C(=O)N[C@H](CO)[C@@H](C)O)(C3)NC(=O)[C@H]([C@@H](C)O)NC(=O)[C@H](Cc3ccccc3)NC(=O)[C@H](C)NC(=O)[C@H](C)NC(=O)[C@H](CN(CC(=O)O)CC(F)(F)F)NC(=O)[C@H](CC(=O)O)NC1=O)NC(=O)[C@H](CC(C)(C)C)NC(=O)[C@H](CC(=O)O)NC2=O (stereo partly drawn) [I-1241, Ac-PL3-Asp-Npg-B5-Asp-TfeGA-Ala-Ala-Phe-Thr-PyrS2-2C1F-BztA-Thro1] |  |
|  | 0.133 µM |  |  | > 20 µM |  | CC(=O)N1CCC[C@]12CC=CCCCC1(CCCC=CCCCOC(=O)N3CC[C@@](C(=O)N[C@@H](Cc4ccsc4)C(=O)N[C@@H](Cc4csc5ccccc45)C(=O)N[C@@H](CCCNC(=N)N)C(N)=O)(C3)NC(=O)[C@H](CC(N)=O)NC(=O)[C@H](Cc3ccccc3)NC(=O)[C@H](C)NC(=O)C(C)(C)NC(=O)[C@H]([C@@H](C)O)NC(=O)[C@H](CC(N)=O)NC1=O)NC(=O)[C@H](CC(C)(C)C)NC(=O)[C@H](CC(=O)O)NC2=O (stereo partly drawn) [I-2413, Ac-PL3-Asp-Npg-B5-Asn-Thr-Aib-Ala-Phe-Asn-PyrS2-3Thi-BztA-Arg-NH2] |  |
|  | 0.734 µM |  |  |  | > 20 µM | CC(C)C[C@H](NC(=O)[C@]12CCN(C1)C(=O)OCCCCCCCCC1(CCCCCCc3ccccc3C(=O)N3CCC[C@@]3(C)C(=O)N[C@@H](CC(=O)O)C(=O)N1)C(=O)N[C@@H](C)C(=O)N[C@@H](CC(=O)O)C(=O)N[C@@H](CC(=O)O)C(=O)N[C@@H](C)C(=O)N[C@@H](C)C(=O)N[C@@H](Cc1ccccc1)C(=O)N2)C(=O)N[C@@H](Cc1ccsc1)C(=O)N[C@@H](Cc1csc2ccccc12)C(=O)N[C@@H](CCC(N)=O)C(N)=O (stereo partly drawn) [I-2606, BzAm2Allyl-MePro-Asp-B5-Ala-Asp-Asp-Ala-Ala-Phe-PyrS2-Leu-3Thi-BztA-Gln-NH2] |  |
|  | 0.904 µM |  |  |  | > 20 µM | CC(C)C[C@H](NC(=O)[C@]12CCN(C1)C(=O)OCCCCCCCCC1(CCCCCCc3ccccc3C(=O)N3CCC[C@@]3(C)C(=O)N[C@@H](CC(=O)O)C(=O)N1)C(=O)N[C@@H](C)C(=O)N[C@@H](CC(=O)O)C(=O)N[C@@H](Cc1cccc(C(=O)O)c1)C(=O)N[C@@H](C)C(=O)N[C@@H](C)C(=O)N[C@@H](Cc1ccccc1)C(=O)N2)C(=O)N[C@@H](Cc1ccsc1)C(=O)N[C@@H](Cc1csc2ccccc12)C(=O)N[C@@H](CCC(N)=O)C(N)=O (stereo partly drawn) [I-2607, BzAm2Allyl-MePro-Asp-B5-Ala-Asp-3COOHF-Ala-Ala-Phe-PyrS2-Leu-3Thi-BztA-Gln-NH2] |  |

| SMILES | IC50 [2] | IC50 ([3]; fluorescence polarization) | IC50 [1, 5] | IC50 [3] | IC50 ([1]; read-out: DLD1 4% Abs IC50, DLD1 reporter, 4%, absolute IC50) | IC50 [1, 6] | IC50 [1, 4] |
| --- | --- | --- | --- | --- | --- | --- | --- |
| CC(=O)N1CCC[C@]12CC=CCCCC1(CCCC=CCCCOC(=O)N3CC[C@@](C(=O)N[C@@H](Cc4ccsc4)C(=O)N[C@@H](Cc4csc5ccccc45)C(=O)N[C@H](CO)[C@@H](C)O)(C3)NC(=O)[C@H](CC(C)C)NC(=O)[C@H](Cc3ccccc3)NC(=O)[C@H](C)NC(=O)[C@H](C)NC(=O)[C@H](Cc3ccccc3C(=O)O)NC(=O)[C@H](CC(=O)O)NC1=O)NC(=O)[C@H](CC(C)(C)C)NC(=O)[C@H](CC(=O)O)NC2=O (single isomer, unassigned) [I-1671, Ac-PL3-Asp-Npg-B5-Asp-2COOHF-Ala-Ala-Phe-Leu-PyrS2-3Thi-BztA-Thro1] | 8 µM | 0.028 µM |  |  |  |  | 1.7 µM |
